Source: patent publication US6525089B1, “Pharmaceutical composition containing decursin” (Binex Co., Ltd., priority 1998, dated 2003)

Columns and labels:
ICR mice [1] = assay: Urinary test, alloxan-treated mice; assay type: in vivo; settings: Alloxan group
Experimental: (§1) 2 days after ICR mice were given alloxan (75 mg/kg, i.v.), their glucose levels at fasting were measured to select high-glucose mice. The high-glucose mice were divided into two groups; physiological saline solution was given to one group, while decursin was orally administered to the other group at a dose of 50 mg/kg for 10 days. The alloxan-free group was also orally given physiological saline solution for 10 days. The body weighs were checked periodically, together with urinary tests. To isolate their sera and kidney, mice were slightly anesthetized with ether and their abdomens were dissected. The blood samples were collected from heart to isolate the sera. The kidney was perfused with 0.9% NaCl and isolated after removal of the blood. Then the weight of right kidney was measured. Further, to measure the protein amount from the kidney tissues, these tissues were assayed according to the Bradford method using Bio-Rad protein assay kit in the presence of bovine serum albumin as a reference standard. To measure the MDA in the kidney tissues, 0.4 ml of 10% sodium dodecylsulfate was added to 0.5 ml of 10% kidney-tissue homogenization solution and left in water bath at 37° C. for 30 minutes; With the subsequent addition of 0.1N-HCl (2 ml) and 0.67% TBA (1 ml), the mixture was voltexed and left in boiling water bath for 30 minutes. The mixture was further cooled in ice bath for 2˜3 minutes to stop the reaction. Then 2 ml of n-butanol was added to the mixture, stirred well and centrifuged at 3000 rpm for 10 minutes. The supernatant was collected to measure the absorbance at 532 nm. 10 μg/ml tetraethoxypropane (TEP) was employed as a reference standard. To measure the MDA in sera, 0.8% thiobarbituric acid (TBA) was added to 0.5 ml of sera and left in boiling water bath for 30 minutes. The mixture was further cooled in ice bath for 2˜3 minutes to stop the reaction. The supernatant was collected to measure the absorbance at 532 nm. 10 μg/ml TEP was employed as a reference standard.

ICR mice [2] = assay: BUN and MDA in blood and MDA in renal tissue, alloxan-treated mice; assay type: in vivo; settings: alloxan 75 mg/kg i.v., saline for 10 days
Experimental: as §1
Mice were orally given decursin at a dose of 50 mg/kg for 10 days continuously. Then various parameters such as BUN and MDA in the blood as a marker of renal failure were measured, together with urinary test. When […] (table 4), the BUN value of single alloxan-treated group, 17.4±3.7 mg/dl was recovered to the normal level (4.8±0.6 mg/dl) by the treatment of decursin. The MDA value of single alloxan-treated group, 0.51±0.07, was reduced to 0.36±0.03 by the treatment of decursin, which was similar to a normal control group. Thus it was noted that the damage in the kidney was completely recovered. Since the reduction of both MDA values in the blood and kidney tissues may be clinically reasonable and desirable, the MDA value in the kidney tissues was measured. As a result, the MDA value in the kidney tissues of a single alloxan-treated group, 13.24±5.93, was reduced to 5.63±0.99 by the treatment of decursin, which was lower than that of normal control group (8.44±1.01).

U-937 cells [3] = assay: Phagocytosis test; assay type: cell-based, human; settings: 1 × 10^−7M, incubated 4 days
Experimental: (§2) U-937 cells were plated on a cell culture dish at a concentration of 2×10^5 cells/ml in a medium containing 10^−7M decursin and incubated in a 5% CO2 incubator at 37° C.
In the phagocytosis test, 10^6 cells were well stirred and pelleted by centrifugation at 2000 rpm for 5 minutes. 1 ml of 0.2% serum free medium solution in polystyrene particle were added to the pellets, swayed and incubated at 37° C. for 4 hours. After being washed with phosphate buffered saline (PBS) three times, cell pellets were harvested and then about 200 μl of DPBS was added. The solution was lightly swayed and checked under a microscope to observe a minimum number of 200 cells. The number of cells containing the particles was calculated by percentage.
The results of phagocytosis test designed to assess the functional change according to differentiation of U-937 cells was shown in the following Table 8.

U-937 cells [4] = assay: NBT reduction test; assay type: cell-based, human; settings: 1 × 10^−7M, incubated 4 days
Experimental: as §2
In the nitrobluetetrazolium (NBT) reduction test, cell solution (about 1×10^6 cells/ml) was well stirred and pelleted by centrifugation at 2000 rpm for 5 minutes. The pellets were suspended in 0.5 ml of medium, followed by the addition of a mixing solution (0.5 ml) containing 10^−6M formyl-methionine leucine phenylalanine (fMLP) and NBT 1.0 mg/DPBSml (1:9). The mixture was incubated at 37° C. for 30 minutes. The reaction was stopped in ice bath and centrifuged at 2000 rpm for 5 minutes. The supernatant was removed and then 200 μl of DPBS was added. The solution was lightly swayed and checked under a microscope to observe a minimum number of 200 cells. The number of NBT (+) cells was calculated by percentage.
The differentiation was investigated by using the fact that the differentiated leukocyte cells may generate superoxide anion by stimulation. […] The cultured mixture, which was reacted with superoxide, was reduced to form a precipitate. Then NBT was added to the precipitate (Table 7).

U-937 cells [5] = assay: Esterase activity test: naphthol AS-D chloroacetate esterase; assay type: cell-based, human; settings: percentage of cells showing activity
Experimental: To determine naphthol AS-D chloroacetate esterase activity, the cultured solution of U-937 cells was pelleted by centrifugation at 2000 rpm for 5 minutes, followed by the addition of 100 μl PBS to prepare a cell-concentrated solution. A drop of the cell solution was put on a slide glass and dried for more than 1 hour. Then 40 ml of deionized water was preheated at 37° C. 1 ml of […] solution was mixed with 1 ml of Fast Red Violet LB base solution and left for 2 minutes. The mixture was added to 40 ml of preheated deionized water. After the addition of 5 ml of TRIZMAL TM 6.3) buffer solution (Sigma Co. T-3128) and 1 ml of naphthol AS-D chloroacetate solution, the resulting solution, which was turned to red color was poured on a petri dish. The cells on a slide glass were fixed with citrate-acetone-formaldehyde solution, (CAF solution) at room temperature. The cells were soaked in the previously prepared solution and incubated at 37° C. for 30 minutes at a dark place. The cells were completely washed with deionized water for more than 2 minutes and counterstained with hematoxylin solution for 2 minutes, washed with tap water and dried in the air. After completely dried, the cells were observed under a microscope to calculate the reddish cell numbers by percentage.
(§3) Thus it was considered that the cells were differentiated into macrophage.like cells by the action of decursin.

U-937 cells [6] = assay: Growth inhibition test (trypan blue exclusion); assay type: cell-based, human; settings: 4 days (96 hours)
Experimental: U-937 cells, optioned from Korea Cell Line Bank, was cultured in RPMI 1640 medium (Sigma Co., R-6504) supplemented with 10% fetal bovine serum (FBS). The medium was exchanged every 5 day by 70%. U-937 cells were inoculated into a cell culture dish at concentration of 2×10^5 cells/ml. Then decursin added into the dish at concentration of 10^−8˜10^−6M, then the cells were cultured for 4 days. Trypan blue exclusion test was performed to determine the number of live cells using a hemacytometer, and the percentage of cancer-cell growth inhibition was calculated. Then, the differentiation was induced by treating with 10^−2M diluted ethanol solution containing various amount of decursin in the medium.

U-937 cells [7] = assay: Esterase activity test: α-naphthyl acetate esterase; assay type: cell-based, human; settings: percentage of cells showing activity
Experimental: To determine α-naphthyl acetate esterase activity in the esterase activity test, the cultured solution of U-937 cells was pelleted by centrifugation at 2000 rpm for 5 minutes, followed by the addition of 100 μl PBS to prepare a cell-concentrated solution. A drop of the cell solution was put on a slide glass and dried for more than 1 hour. Then 40 ml of deionized water was preheated at 37° C. 1 ml of […] solution was mixed with 1 ml of Fast Blue BB base solution and left for 2 minutes. The mixture, being turned to yellow color with thick brown, was added to 40 ml of the preheated deionized water. After the addition of 5 ml of TRIZMAL TM 7.6 buffer solution (Sigma Co. 870-2) and 1 ml of α-naphthyl acetate solution, the resulting solution, which was turned to green color, was poured into a petri dish. The cells on a slide glass were fixed with citrate-acetone-formaldehyde solution (CAF solution) at room temperature. The cells were soaked in the previously prepared solution and incubated at 37° C. for 30 minutes at a dark place. The cells were completely washed with deionized water for more than 2 minutes and counterstained with hematoxylin solution for 2 minutes, washed with tap water and dried in the air. After completely dried, the cells were observed under a microscope to determine the blackish cell numbers.
as §3

O=C1NC(=O)C(=O)C(=O)N1 [alloxan]
Urinary test Bilirubin: count in category + (ICR mice [1]): 2
Urinary test Bilirubin: count in category ++ (ICR mice [1]): 6
Urinary test Bilirubin: count in category +++ (ICR mice [1]): 2
Urinary test Glucose: count in category ++ (ICR mice [1]): 10
Urinary test Ketone: count in category ± (ICR mice [1]): 3
Urinary test Ketone: count in category − (ICR mice [1]): 7
Urinary test Nitrite: count in category + (ICR mice [1]): 4
Urinary test Nitrite: count in category − (ICR mice [1]): 6
Urinary test Occult blood: count in category ++ (ICR mice [1]): 2
Urinary test Occult blood: count in category +++ (ICR mice [1]): 8
Urinary test Protein: count in category − (ICR mice [1]): 10
Urinary test Specific gravity: count in category ++ (ICR mice [1]): 1
Urinary test Specific gravity: count in category +++ (ICR mice [1]): 9
Urinary test Urobilinogen: count in category + (ICR mice [1]): 10
Urinary test pH: count in category ± (ICR mice [1]): 10
BUN (ICR mice [2]): 17.4 ± 3.7 mg/dL
MDA in blood (ICR mice [2]): 0.51 ± 0.07 µg/mL
MDA in renal tissue (ICR mice [2]): 13.24 ± 5.93 µg/g

C=C1CC[C@H](O)C/C1=C/C=C1\CCC[C@]2(C)[C@@H]([C@H](C)CCCC(C)C)CC[C@@H]12 [Vitamin D3, reference compound]
Phagocytosis test: cells showing phagocytosis activity (U-937 cells [3]): 25.8 ± 1.3%
Phagocytosis test: cells showing phagocytosis activity (U-937 cells [3]; listed as vitamin D3): 25.8%
NBT reduction test: positive cells (U-937 cells [4]): 39.0 ± 2.1%
NBT reduction test: positive cells (U-937 cells [4]; listed as vitamin D3): 39%
Naphtol AS-D chloroacetate esterase Activity (%) (U-937 cells [5]): 0.0%
Growth inhibition rate (%) (U-937 cells [6]; 1 × 10^−6M): 54.0 ± 6.7%
Growth inhibition rate (%) (U-937 cells [6]; 1 × 10^−7M): 42.5 ± 6.4%
Growth inhibition rate (%) (U-937 cells [6]; 1 × 10^−8M): 26.0 ± 5.7%
Growth inhibition rate (%) (U-937 cells [6]; 5 × 10^−7M): 48.0 ± 6.0%
Growth inhibition rate (%) (U-937 cells [6]; 5 × 10^−8M): 33.5 ± 0.7%
α-Naphtylacetate esterase Activity (%) (U-937 cells [7]): 79.3 ± 4.5%
α-Naphtylacetate esterase Activity (%) (U-937 cells [7]; listed as vitamin D3): 80%
